Reference: patent US9763451B2, “Method for improved use of the production potential of genetically modified plants” (Bayer Intellectual Property GmbH, priority 2008, dated 2017)

Key:
Type in all cases: in vivo
Aphis gossypii [1] = test: Aphis gossypii test (foliar application) on genetically modified cotton; details: 20 ppm
Description: (§1) A synergistic effect in insecticides and acaricides is always present when the action of the active compound combinations exceeds the total of the actions of the active compounds when applied individually.
(§2) The expected action for a given combination of two active compounds can be calculated as follows, using the formula of S. R. Colby, Weeds 15 (1967), 20-22:
(§3) • X is the kill rate, expressed as % of the untreated control, when employing active compound A at an application rate of m g/ha or in a concentration of m ppm, • Y is the kill rate, expressed as % of the untreated control, when employing the transgenic seed and • E is the kill rate, expressed as % of the untreated control, when employing the active compound A at application rates of m g/ha or in a concentration of m ppm and the transgenic seed, then
(§4) If the actual insecticidal kill rate exceeds the calculated value, the action of the combination is superadditive, i.e. a synergistic effect is present. In this case, the actually observed kill rate must exceed the value calculated using the above formula for the expected kill rate (E).
(§5) Individual potted genetically modified cotton plants with Lepidoptera resistance and Glyphosate resistance are treated with the desired product against the cotton aphid (Aphis gossypii).
(§6) After the desired period of time, the kill in % is determined. 100% means that all the aphids have been killed; 0% means that none of the aphids have been killed.

Aphis gossypii [2] = test: Aphis gossypii test (drench application) on genetically modified cotton; details: 0.8 ppm
Description: as §1, §2, §3, §4, §5, §6

Spodoptera frugiperda = Spodoptera frugiperda test (foliar application) on genetically modified maize; details: compound alone, 100 ppm
Description: as §1, §2, §3, §4
Pots with in each case 5 genetically modified maize plants with Lepidoptera, Coleoptera and/or herbicide resistances are treated in 2 replications against the armyworm (Spodoptera frugiperda).
After the desired period of time, the kill in % is determined. […]

[3] = combined with cotton plant containing cry gene and Glyphosate resistance gene, expected kill

## CC(c1ccc(C(F)(F)F)nc1)S(C)(=O)=NC#N (stereo not shown) [compound I-8]
Aphis gossypii [1]; combined with cotton plant containing cry gene (Lepidoptera resistance) and Glyphosate resistance gene, after 1 d
  Kill in % after 1d, found: 85%
Aphis gossypii [1]; [3]
  Kill in % after 1d, calc. (Colby formula): 65%
Aphis gossypii [1]; active compound alone, after 1 d
  Kill in % after 1d: 65%
Aphis gossypii [2]; combined with cotton plant containing cry gene (Lepidoptera resistance) and Glyphosate resistance gene, after 2 d
  Kill in % after 2d, found: 90%
Aphis gossypii [2]; [3]
  Kill in % after 2d, calc. (Colby formula): 70%
Aphis gossypii [2]; active compound alone, after 2 d
  Kill in % after 2d: 70%
Spodoptera frugiperda
  Kill in % after 4d: 0%
